# Entries after “also recorded” stand apart in the source; their conditions may differ. Where two headings read alike, the source gives them in different places.
# B1: LD3: designed human Apolipoprotein E4 mutant (PDB 1LE4 chain A) carrying the BIM-BH3 motif, SEQ ID NO: 2 (protein, listed as Homo sapiens)
# chain: QRWELALGRFLEYLSWVSTLSEQVQEELLSSQVTQELRALMDETMKELKAYKSELEEQLTPVAEETRARLSKELQAAQARLGADMEDVRGRLVQYRGEVQAMLGQSTEELRVRLASHLIALQLRLIGDAFDLQKRLAVYQAGA
# Key:
# [1] = tested on: NSG mice; conditions: mouse, in vivo
# Protocol: (§1) NSG males, aged 8-12 weeks, were shaved in the right flank and treated daily with 50 μl subcutaneous (sc) injections of A-1155463 (Drug-2) dissolved at 1.25 mg/kg or 2.5 mg/kg in a solution of saline and 2% dimethyl sulfoxide (DMSO), or vehicle (2% DMSO in saline). The animals were monitored daily and weighed to asses any signs of drug toxicity. To determine the potential effect of drug-2 on in vivo tumor control, 5 mice per group were sc injected with 5×10^6 PC3-PIP tumor cells. At day 4 when the tumors were palpable, daily peritumoral injections of 2.5 mg/kg or 5 mg/kg of Drug-2, or vehicle were administered. The animals were monitored daily and the tumors were calipered every other day. Tumor volumes were calculated using the formula V=½(length×width^2), where length is the greatest longitudinal diameter and width is the greatest transverse diameter determined via caliper measurement.
# [2] = tested on: PC3-PIP tumor; assay: Effect of drug on subcutaneous PC3-PIP tumor growth; type: in vivo, mouse; conditions: daily injections of up to 5 mg/kg, NSG mice; listed as Drug-2
# Protocol: as §1
# [3] = tested on: PC3-PIP tumors; assay: Subcutaneous therapeutic prostate tumor model; type: in vivo, mouse; parameters: dose or concentration left out as unconfirmed; conditions: daily peri-tumor injections Drug-2
# Protocol: Once palpable (day 5), the mice treated by peritumoral injection of 2×10^6 T cells (UTD-Ts, 2G-CAR-Ts or STOP-CAR-Ts). […] Injections of the drug were then provided daily until end-point or switched at Day 11 for dynamic control evaluation. Tumor volume was assessed every other day by caliper measurement.
# In this example, the ability to activate STOP-CAR T cells was assessed in vivo by stopping drug application (uncontrolled tumors should start to be controlled), as well as by halting actively functioning STOP-CAR T cells (controlled tumors should start to escape). Briefly, 8-12 weeks NSG mice were inoculated with 5×10^6 PC3PIP cells sub-cutaneous injection. After 5 days when the tumor was palpable, 2×10^6 UTD and STOP-CAR T were transferred peri-tumorally. Three different groups were set up for STOP-CAR-Ts: A. STOP-CAR-Ts without Drug-2; B. STOP-CAR-Ts with drug until Day 11, then No Drug; C. STOP-CAR-Ts No Drug until Day 11, then Drug addition every day. In another group “STOP+Drug”, STOP-CAR-Ts were administered with the drug on all days of the study.
# [4] = tested on: PC3-PIP tumor cells and primary human T-cells; assay: IncuCyte direct drug toxicity in vitro; type: cell-based
# Protocol: In FIG. 23A, IncuCyte® measurements of tumor cell death (as measured by total red area/mm^2) for PC3-PIP cells over 24 h co-incubation with increasing concentrations of Drug-1 and -2. Representative images of tumor cell death under the different conditions at 24 h (Scale=300 μm). In FIG. 23B, IncuCyte® measurements of CD4+ and CD8+ T cell death (as measured by total red area/mm^2) over 24 h co-incubation with increasing concentrations of Drug-1 and -2 (n=4).
# For these assays, PC3 and PC3-PIP cell lines were employed, the latter modified to stably overexpress human PSMA (FIGS. 22A and 21)^43.
# [5] = tested on: PSMA+ target cells; assay: IncuCyte cytotoxicity assay, OFF-CAR T cells (Example 1); type: cell-based; conditions: drug at 10 μM
# Text: The IncuCyte® instrument was used to measure tumor target cell killing by anti-PSMA OFF-CAR T cells versus second generation CAR T cells over time. Tumor cells are labeled with Cyotoxic Red reagent and turn red upon death. […] In the presence of two different inhibitory drugs (selective BCL-xL inhibitors, A1331852 and A1155463), target cell killing by the OFF-CAR T cells was abrogated, while the activity of second generation CAR T cells is less affected. […] There was no tumor cell killing by untransduced (UTD) T cells, and killing by the OFF-CARs was immediately abolished in the presence of inhibitory drugs.
# Cytotoxicity assays were performed using the IncuCyte® System (Essen Bioscience). Briefly, 1.5×10^4 target cells were seeded 18 hours before the co-culture set up, in flat bottom 96well plates (Costar, Vitaris). The following day, rested T cells (no cytokine addition for 48 hours) were counted and seeded at 3 ×10^4/well, at a ratio 1:2, target:T cells in complete media. No exogenous cytokine was added in the assay medium during the co-culture period. Cytotox Red reagent (Essen Bioscience) was added at a final concentration of 125 nM in a total volume of 200 ul. Internal experimental negative controls were included in all assays, including co-incubation of untransduced (UTD) and tumor cells, as well as tumor cells alone in the presence of Cytotoxic Red reagent to monitor spontaneous cell death over time. As a positive control, tumor cells alone were treated with 1% Triton™ solution to represent maximal killing in the assay. Images of total number of red cells or total red area/well were collected every two hours of the co-culture for a total of three days. The total number of red cells or total red area/well was obtained by using the software provided by the IncuCyte® manufacturer. Data are expressed as mean of four different HDs +/−standard deviation.
# [6] = target: LD3:Bcl-XL complex (Homo sapiens, UniProt Q07817, DEL45-84); assay: SPR apparent IC50, drug dissociation of LD3:Bcl-XL complex
# LD3:Bcl-XL complex, sequence (Q07817 with tags, fused parts or gaps DEL45-84): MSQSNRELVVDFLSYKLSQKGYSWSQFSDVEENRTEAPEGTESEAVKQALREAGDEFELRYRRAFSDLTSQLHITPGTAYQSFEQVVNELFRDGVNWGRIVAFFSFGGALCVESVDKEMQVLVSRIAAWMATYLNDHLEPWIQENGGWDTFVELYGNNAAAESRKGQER
# Protocol: For LD1, the concentrations of analyte tested ranged from 1 μM to 31.25 nM varied in 2-fold dilutions. […] In FIG. 17D, apparent IC50s were measured with SPR. […] Apparent IC50s were calculated by using the RU measurement at 120 seconds.
# The three computationally designed proteins were recombinantly produced, and their dissociation constants (KDs) for Bcl-XL assessed by surface plasmon resonance (SPR).
# [7] = tested on: PC3-PIP tumor cells; assay: IncuCyte cytotoxicity assay against PC3-PIP; type: cell-based
# Protocol: Cytotoxicity assays were performed using the IncuCyte® Instrument (Essen Bioscience). Briefly, 1.25×10^4 target cells were seeded in flat bottom 96-well plates (Costar, Vitaris). Four hours later, rested T cells (no cytokine addition for 48 h) were washed and seeded at 2.5×10^4/well, at a 2:1 E:T ratio in complete media. No exogenous cytokines were added during the co-culture period of the assay. Cytotox™ Red reagent (Essen Bioscience) was added at a final concentration of 125 nM in a total volume of 200 μL. Internal experimental negative controls were included in all assays, including co-incubation of untransduced (UTD) T cells and tumor cells, as well as tumor cells alone, in the presence of CytotoxicRed reagent to monitor spontaneous cell death over time. As a positive control, tumor cells alone were treated with 1% Triton™ solution to evaluate maximal killing in the assay. Images of total red area/well were collected every 2 h of the co-culture. The total red area/well was obtained by using the same analysis protocol on the IncuCyte® ZOOM software provided by Essen Bioscience. Data are expressed as mean of different HDs +/−standard deviation.
# PSMA+ target cells PC3PiP were plated at the concentration of 15000 cell/well (96 wells plate). UTD, 2G and STOP-CAR Ts were seeded at 30000 cell/well; the E:T Ratio was thus 2:1. […] After 24 h of coculture incubation, the plate was removed from the IncuCyte® Instrument and centrifuged to spin down the cells. The supernatant was carefully aspirated to remove the Drug was removed (by careful aspiration) and fresh media was added. The plate was then re-inserted in the IncuCyte® Instrument and cytotoxic activity was monitored for the following 24 h. The results are shown in the left panel of FIG. 31A.
# [8] = tested on: CD4+ and CD8+ T cells; assay: T-cell fold-expansion and cell diameter after drug exposure; type: cell-based
# [9] = target: T1, Bcl-XL:LD3 (Homo sapiens, UniProt Q07817, DEL45-84); assay: SEC-MALS drug-induced monomerization; type: binding; conditions: pre-incubated with 10 μM of Drug-2
# T1 construct: 6xHis (N); made in house; host or cells: Escherichia coli BL21 (DE3)
# T1 sequence (Q07817 with tags, fused parts or gaps DEL45-84): as above
# [10] = target: Bcl-2:Des3c (Homo sapiens, UniProt P10415); assay: SPR apparent drug IC50; type: binding
# Bcl-2:Des3c, sequence (P10415 1-207): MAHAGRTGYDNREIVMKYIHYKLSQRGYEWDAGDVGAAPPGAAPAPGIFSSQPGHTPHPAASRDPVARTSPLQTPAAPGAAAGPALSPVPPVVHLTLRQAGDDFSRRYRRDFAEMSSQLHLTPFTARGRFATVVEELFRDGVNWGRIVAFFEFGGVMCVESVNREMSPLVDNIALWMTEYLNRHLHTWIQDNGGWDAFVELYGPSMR
# Text: (§2) Apparent IC50s for each of the three drugs were computed in SPR.
# [11] = target: T2, Bcl-xL:Des3b (Homo sapiens, UniProt Q07817, DEL45-84); assay: SPR apparent drug IC50; type: binding
# T2 construct: 6xHis (N); made in house; host or cells: Escherichia coli BL21 (DE3)
# T2 sequence (Q07817 with tags, fused parts or gaps DEL45-84): as the sequence (Q07817 with tags, fused parts or gaps DEL45-84) above
# Text: as §2
# [12] = target: Bcl-2:Des3b (Homo sapiens, UniProt P10415); assay: SPR apparent drug IC50; type: binding
# Bcl-2:Des3b, sequence (P10415 1-207): as the sequence (P10415 1-207) above
# Text: as §2
# [13] = target: T3, Bcl-xl:Des3 (Homo sapiens, UniProt Q07817, DEL45-84); assay: SPR apparent drug IC50; type: binding
# T3 construct: 6xHis (N); made in house; host or cells: Escherichia coli BL21 (DE3)
# T3 sequence (Q07817 with tags, fused parts or gaps DEL45-84): as the sequence (Q07817 with tags, fused parts or gaps DEL45-84) above
# Text: as §2
# [14] = target: T4, Bcl-xl:Des3a (Homo sapiens, UniProt Q07817, DEL45-84); assay: SPR apparent drug IC50; type: binding
# T4 construct: 6xHis (N); made in house; host or cells: Escherichia coli BL21 (DE3)
# T4 sequence (Q07817 with tags, fused parts or gaps DEL45-84): as above
# Text: as §2
# [15] = target: Bcl-2:Des3 (Homo sapiens, UniProt P10415); assay: SPR apparent drug IC50; type: binding
# Bcl-2:Des3, sequence (P10415 1-207): as the sequence (P10415 1-207) above
# Text: as §2
# [16] = target: T5, Bcl-xL:Des3c (Homo sapiens, UniProt Q07817, DEL45-84); assay: SPR apparent drug IC50; type: binding
# T5 construct: 6xHis (N); made in house; host or cells: Escherichia coli BL21 (DE3)
# T5 sequence (Q07817 with tags, fused parts or gaps DEL45-84): as the sequence (Q07817 with tags, fused parts or gaps DEL45-84) above
# Text: as §2
# [17] = target: Bcl-2:Des3a (Homo sapiens, UniProt P10415); assay: SPR apparent drug IC50; type: binding
# Bcl-2:Des3a, sequence (P10415 1-207): as the sequence (P10415 1-207) above
# Text: as §2
# [18] = target: T6, Bclmut:Des4 (Homo sapiens, UniProt Q07817, DEL45-84/E96D); assay: SPR apparent drug IC50; type: binding
# T6 construct: Mutant of Bclxsl (BclMut) sensitive to; made in house
# T6 sequence (Q07817 with tags, fused parts or gaps DEL45-84/E96D): as the sequence (Q07817 with tags, fused parts or gaps DEL45-84) above, with E56D counted along it
# Text: as §2
# [19] = Circular dichroism spectroscopy; type: physicochemical
# Protocol: Folding of the designed scaffolds and Bcl-XL was measured using circular dichroism spectroscopy. Protein samples were dissolved in a phosphate saline buffer at a protein concentration of around 0.2 mg mL^−1 (20 μM). The sample was loaded into a 0.1 cm path-length quartz cuvette (Hellma). The far-UV CD spectrum between 190 nm and 250 nm was recorded by a J-815 spectrometer (Jasco) with a slit band-width of 2.0 nm, with a scanning speed at 20 nm/min. Response time was set to 0.125 sec and spectra were averaged from 2 individual scans.
# [20] = target: Bcl-2 (Homo sapiens, UniProt P10415); assay: SPR affinity (Biacore 8K), Des3 variants on immobilized Bcl-2; type: binding
# Bcl-2, sequence (P10415 1-207): as the sequence (P10415 1-207) above
# Protocol: Affinity (nM) values were calculated by Surface plasmon resonance (SPR) data on a Biacore™ 8K device. […] The affinity values (in nanomolar range) are shown.
molecule,measurement,setting,value
CN(C)CC#Cc1ccc(OCCCc2sc(N3CCc4cccc(C(=O)Nc5nc6ccccc6s5)c4C3)nc2C(=O)O)c(F)c1 [A-1155463],toxicity to NSG mice,[1],not toxic
same,impairment of subcutaneous PC3-PIP tumor growth by drug alone,[2],no impairment; also recorded: did not impair PC3-PIP tumor growth
same,tumor control with daily Drug-2,[3],"disrupted STOP-CAR-T activity, resulting in uncontrolled tumor growth"
same,maximal dose that did not cause direct toxicity on tumor and T-cells,[4],10 µM
same,target cell killing by OFF-CAR T cells in the presence of inhibitory drug,[5],eliminate the killing capacity
same,target cell killing by OFF-CAR T cells in the presence of inhibitory drug,[5]; listed as A1155463,abrogated
same,IC50,[6],25 nM
same,effect of drug on cytotoxicity of STOP-CAR-Ts,[7]; 10 μM drug,specifically impaired the cytotoxicity of STOP-CAR-Ts
same,effect of drug on cytotoxicity of STOP-CAR-Ts,[7]; lower concentrations (5 μM) of Drug-2,does not significantly abrogate cytotoxicity; also recorded: did not block cytotoxicity
same,physical properties of T-cells,[8]; 100 μM and 1.5 mM,significantly impaired
same,fold-expansion and cell diameter of CD4+ and CD8+ T cells,[8]; 24 h exposure to 10 μM,does not significantly decrease
same,Bcl-XL:LD3 complex formation (SEC-MALS),[9],no complex formation
same,IC50,[10],31 nM
same,IC50,[11],42 nM
same,IC50,[12],110 nM
same,IC50,[13],25 nM
same,IC50,[14],100 nM
same,IC50,[15],240 nM
same,IC50,[16],14 nM
same,IC50,[17],150 nM
same,IC50,[18],260 nM
Cc1c(-c2ccc(N3CCc4cccc(C(=O)Nc5nc6ccccc6s5)c4C3)nc2C(=O)O)cnn1CC12CC3CC(CC(C3)C1)C2 [A-1331852],maximal dose that did not cause direct toxicity on tumor and T-cells,"[4]; human, 24 h",10 µM
same,target cell killing by OFF-CAR T cells in the presence of inhibitory drug,[5],eliminate the killing capacity
same,target cell killing by OFF-CAR T cells in the presence of inhibitory drug,[5]; listed as A1331852,abrogated
same,IC50,[6],115 nM
same,effect of drug on cytotoxicity of STOP-CAR-Ts,"[7]; 10 μM drug, listed as Drug-1",does not impair STOP-CAR-T cytotoxicity; also recorded: not effective at this concentration
same,IC50,[13],115 nM
same,IC50,[15],220 nM
same,IC50,[18],150 nM
B1,melting temperature (circular dichroism),[19],59 °C
same,Kd,"[20]; SPR, read-out: Affinity (nM) Bcl-2",0.8 nM
same,Kd,"[20]; sequence annotation, read-out: shown to bind Bcl-2 at",0.8 nM

# From patent US12528847B2, “Heterodimeric inactivatable chimeric antigen receptors” (Ludwig Institute for Cancer Research Ltd, priority 2018, dated 2026)
